Measured values taken from patent US8592166B2, “Hypoxia related genes and proteins for the treatment and diagnosis of pregnancy related complications” (Beth Israel Deaconess Medical Center, Inc., priority 2006, dated 2013).

What was measured:
pregnant mice = test: COMT knockout mouse model of pre-eclampsia, administration of 2-ME to pregnant mice; assay type: in vivo; settings: administration of 2-ME to mice, FIG. 12
Description: FIG. 4 is a schematic of the experimental design for evaluating the role of COMT pre-eclampsia in mice.
FIG. 5 is a graph showing the number of dead embryos on Day 17 of pregnancy in mice with the indicated genotype (WT=wild type; Ko=mice with the COMT gene knocked out; +2me indicates the addition of 2-ME 2 ng/day).

[1] = system: cytotrophoblasts from the placenta; settings: FIG. 1 and WO 2005/110462; cited from earlier work

COc1cc2c(cc1O)CC[C@@H]1[C@@H]2CC[C@]2(C)[C@@H](O)CC[C@@H]12 [2-ME, 2-methoxyestradiol]
abnormal development (pregnant mice): does not alter the litter size or cause abnormal development
litter size (pregnant mice): does not alter the litter size
expression of HIF-1α [1]: decreases the expression of HIF-1α
expression of VEGF, PlGF, VEGF Receptor 1 (VEGFR1) and sFlt-1 [1]: dramatic decrease
